In ChEMBL document CHEMBL5346936, “Functionalized sulfonyl anthranilic acid derivatives inhibit replication of all the four dengue serotypes” (Eur J Med Chem, 2023):
The source made the active and inactive calls. The rule behind the calls is not given here.

Columns and labels:
dengue virus type 2 [1] = assay: Antiviral activity against DENV-2 EDEN 3295 infected in 10^5 human Huh-7 cells at 0.3 MOI for 1 hr followed by compound treatment at 10 uM for 48 hrs relative to control; type: functional
dengue virus type 2 [2] = assay: Antiviral activity against DENV-2 EDEN 3295 infected in 10^5 human Huh-7 cells at 0.3 MOI for 1 hr followed by compound treatment for 48 hrs; type: functional, organism-based; settings: EDEN 3295, Huh-7
[3] = Cytotoxicity against human Huh-7 cells treated for 48 hrs measured by celltitre-glo luminescent assay; type: toxicity, cell-based
[4] = Selectivity index, ratio of CC50 for human Huh-7 cells to EC50 for antiviral activity against DENV-2 EDEN 3295; type: toxicity; settings: read-out: Ratio CC50/EC50
dengue virus type 2 [5] = assay: Inhibition of DENV-2 NS5 polymerase incubated for 1 hr measured at 30 uM by fluorescence based alkaline phosphate coupled polymerase assay
[6] = (§1) Inhibition of DENV-2 NS5 polymerase incubated for 1 hr measured by fluorescence based alkaline phosphate coupled polymerase assay; design: species or system dengue virus type 2
dengue virus type 2 [7] = assay: as §1
dengue virus type 2 [8] = assay: Antiviral activity against DENV-2 infected in human Huh-7 cells at MOI 1 assessed as reduction of intracellular viral titre at 10 uM, 2 hr prior to infection measured after 48 hrs measured by RT-PCR analysis; type: functional, organism-based; settings: time 50.0 hrs
dengue virus type 2 [9] = assay: Antiviral activity against DENV-2 infected in human Huh-7 cells at MOI 1 assessed as reduction of intracellular viral titre at 10 uM during infection measured after 48 hrs measured by RT-PCR analysis; type: functional, organism-based
dengue virus type 2 [10] = assay: Antiviral activity against DENV-2 infected in human Huh-7 cells at MOI 1 assessed as reduction of intracellular viral titre at 10 uM measured after 2 hrs post infection by RT-PCR analysis; type: functional, organism-based
dengue virus type 2 [11] = assay: Antiviral activity against DENV-2 infected in human Huh-7 cells at MOI 1 assessed as reduction of intracellular viral titre at 10 uM measured after 24 hrs post infection by RT-PCR analysis; type: functional, organism-based
dengue virus type 2 [12] = assay: Antiviral activity against DENV-2 infected in human Huh-7 cells at MOI 1 assessed as log reduction of intracellular viral titre at 10 uM measured after 60 hrs post infection by RT-PCR analysis; type: functional
dengue virus type 2 [13] = assay: Antiviral activity against DENV-2 infected in human Huh-7 cells assessed as reduction of viral protein NS3 expression at 10 uM for 12 hrs post infection by RT-PCR analysis; type: functional, organism-based
dengue virus type 2 [14] = assay: Antiviral activity against DENV-2 infected in human Huh-7 cells assessed as reduction of viral protein NS5 expression at 10 uM for 12 hrs post infection by RT-PCR analysis; type: functional, organism-based
dengue virus type 2 [15] = assay: Antiviral activity against DENV-2 infected with asian tiger mosquito C6/36 cells; type: functional, organism-based
dengue virus type 2 [16] = assay: Antiviral activity against DENV-2 infected with hamster BHK-21 cells; type: functional, organism-based
dengue virus type 2 [17] = assay: Antiviral activity against DENV-2 infected with green monkey Vero cells; type: functional, organism-based
dengue virus type 2 [18] = assay: Antiviral activity against DENV-2 infected with human Calu-1 cells; type: functional, organism-based
dengue virus type 2 [19] = assay: Antiviral activity against DENV-2 infected with human A549 cells; type: functional, organism-based
[20] = Cytotoxicity against asian tiger mosquito C6/36 cells; type: toxicity, cell-based; settings: aedes albopictus
[21] = Cytotoxicity against hamster BHK-21 cells; type: toxicity, cell-based, Mesocricetus auratus
[22] = Cytotoxicity against green monkey Vero cells; type: toxicity, cell-based; settings: chlorocebus sabaeus
[23] = Cytotoxicity against human Huh-7 cells; type: toxicity, cell-based
[24] = Cytotoxicity against human Calu-1 cells; type: toxicity, cell-based
[25] = Cytotoxicity against human A549 cells; type: toxicity, cell-based

Row | EC50 (dengue virus type 2 [2]) [µM] | SMILES | Activity (dengue virus type 2 [1]) [%] | CC50 at 48 h [3] [µM] | selectivity ratio [4] | further results
1 | – | O=C(NCc1ccccc1)c1cc(OCC2CCCCC2)ccc1NS(=O)(=O)c1cccc2cccnc12 | 45 | – | – | –
2 | 2.2 | CCCOc1ccc(NS(=O)(=O)c2cccc3cccnc23)c(C(=O)NC(CC)CC)c1 | – | > 100 | > 45 | –
3 | 0.23 | C#C[C@@]1(O)[C@H](O)[C@@H](CO)O[C@H]1n1ccc2c(N)ncnc21 | – | – | 434 | –
4 | – | COc1ccc(CNC(=O)c2cc(Oc3cccc(Br)c3)ccc2NS(=O)(=O)c2cccc3cccnc23)cc1OC | 50 | – | – | –
5 | 12.5 | O=C(NCc1ccccc1)c1cc(Oc2cccc(Br)c2)ccc1NS(=O)(=O)c1ccc(F)c(F)c1 | – | 44.5 | 3.56 | –
6 | 17.9 | CCc1cccc(Oc2ccc(NS(C)(=O)=O)c(C(=O)N[C@H](C)c3ccccc3)c2)c1 | – | 51.1 | 2.85 | inhibition (dengue virus type 2 [5]): inactive
7 | – | NC(=O)c1cc(Oc2cccc(Br)c2)ccc1NS(=O)(=O)c1cccc2cccnc12 | 27.5 | – | – | –
8 | 5.6 | O=C(NCc1ccc(F)c(F)c1)c1cc(Oc2cccc(Br)c2)ccc1NS(=O)(=O)c1cccc2cccnc12 | – | > 100 | > 17.8 | –
9 | 48.8 | COc1ccc(CNC(=O)c2cc(Oc3cccc(Br)c3)ccc2NS(C)(=O)=O)cc1OC | – | 100 | 2.05 | inhibition (dengue virus type 2 [5]): inactive
10 | 3.9 | O=C(NCc1ccccc1)c1cc(Oc2ccccc2)ccc1NS(=O)(=O)c1cccc2cccnc12 | – | > 100 | > 25.4 | –
11 | 47.5 | CS(=O)(=O)Nc1ccc(Oc2cccc(Br)c2)cc1C(=O)NCc1ccccc1 | – | 66.4 | 1.39 | inhibition (dengue virus type 2 [5]): inactive
12 | – | O=C(OC1=CS(=O)(=O)Nc2ccc(Oc3ccccc3Br)cc21)c1ccc(F)c(F)c1 | – | – | – | IC50 [6]: 18.4 µM
13 | – | O=C(NCc1ccccc1)c1cc(Oc2cccc(Br)c2)ccc1NS(=O)(=O)c1ccc2c(c1)CCO2 | 32.5 | – | – | –
14 | – | O=C(NCc1ccccc1)c1cc(F)ccc1NS(=O)(=O)c1cccc2cccnc12 | 0 | – | – | –
15 | 2.5 | CCCOc1ccc(NS(=O)(=O)c2cccc3cccnc23)c(C(=O)NC2CCC2)c1 | – | > 100 | > 40 | –
16 | – | CCCOc1ccc(NS(=O)(=O)c2cccc3cccnc23)c(C(=O)N(CC)Cc2ccccc2)c1 | 25 | – | – | –
17 | – | O=C(NCc1ccccc1)c1cc(Oc2cccc(Br)c2)ccc1NS(=O)(=O)c1cccnc1 | 12.5 | – | – | –
18 | – | CCCOc1ccc(NS(=O)(=O)c2cccc3cccnc23)c(C(=O)NCCN2CCCCC2)c1 | 20 | – | – | –
19 | 5.9 | CCc1cccc(Oc2ccc(NS(=O)(=O)c3cccc4cccnc34)c(C(=O)NCc3ccc4c(c3)OCO4)c2)c1 | – | > 100 | > 16.9 | –
20 | 42.6 | CS(=O)(=O)Nc1ccc(Oc2cccc(Br)c2)cc1C(=O)NCc1ccc(F)c(F)c1 | – | 40.3 | – | inhibition (dengue virus type 2 [5]): inactive

Row | EC50 (dengue virus type 2 [2]) [µM] | SMILES | Activity (dengue virus type 2 [1]) [%] | CC50 at 48 h [3] [µM] | selectivity ratio [4] | further results
21 | 2.2 | CCCOc1ccc(NS(=O)(=O)c2cccc3cccnc23)c(C(=O)NCCc2ccccc2)c1 | – | > 100 | > 45.5 | –
22 | 5.6 | CCCOc1ccc(NC(=O)c2cccc3cccnc23)c(C(=O)NCc2ccccc2)c1 | – | > 100 | > 17 | –
23 | 33.9 | CCc1cccc(Oc2ccc(NS(C)(=O)=O)c(C(=O)NCc3ccc(F)c(F)c3)c2)c1 | – | 41.1 | 1.21 | inhibition (dengue virus type 2 [5]): inactive
24 | – | O=C(NCc1ccccc1)c1cc(Oc2cccc(Br)c2)ccc1NS(=O)(=O)N1CCOCC1 | 0 | – | – | –
25 | – | O=C(NCc1ccccc1)c1ccccc1NS(=O)(=O)c1cccc2cccnc12 | 0 | – | – | –
26 | 7.3 | O=C(NCc1ccccc1)c1cc(Oc2cccc(Br)c2)ccc1NS(=O)(=O)c1cccc2cccnc12 | – | > 100 | > 13.6 | –
27 | – | CCCOc1ccc(NS(=O)(=O)c2cccc3cccnc23)c(C(=O)NCc2ccccc2)c1 | – | > 100 | – | inhibition (dengue virus type 2 [7]): inactive; Activity (dengue virus type 2 [8]): inactive; Activity (dengue virus type 2 [9]): inactive; Activity (dengue virus type 2 [10]): Active; Activity (dengue virus type 2 [11]): Active; log(activity) (dengue virus type 2 [12]): 3; Activity (dengue virus type 2 [13]): Active; Activity (dengue virus type 2 [14]): Active; EC50 (dengue virus type 2 [15]): > 10 µM; EC50 (dengue virus type 2 [16]): 20 µM; EC50 (dengue virus type 2 [17]): 1.09 µM; EC50 (dengue virus type 2 [18]): 0.18 µM; EC50 (dengue virus type 2 [19]): 1.38 µM; CC50 [20]: > 100 µM; CC50 [21]: > 25 µM; CC50 [22]: > 25 µM; CC50 [23]: > 100 µM; CC50 [24]: > 100 µM; CC50 [25]: > 100 µM
28 | 4.8 | COc1ccc(NS(=O)(=O)c2cccc3cccnc23)c(C(=O)NCc2ccccc2)c1 | – | > 100 | > 20.8 | –
29 | – | CCCOc1ccc(NS(=O)(=O)c2cccc3ccccc23)c(C(=O)NCc2ccccc2)c1 | 0 | – | – | –
30 | 1.9 | CCCOc1ccc(NS(=O)(=O)c2cccc3cccnc23)c(C(=O)NC2CCCc3ccccc32)c1 (stereo not drawn) | – | > 100 | > 52.6 | –
31 | 44.9 | CCc1cccc(Oc2ccc(NS(C)(=O)=O)c(C(=O)NCc3ccccc3)c2)c1 | – | 78.6 | 1.75 | inhibition (dengue virus type 2 [5]): inactive
32 | – | CCCOc1cc(C(=O)NCc2ccccc2)ccc1NS(=O)(=O)c1cccc2cccnc12 | 0 | – | – | –
33 | 3 | CCc1cccc(Oc2ccc(NS(=O)(=O)c3cccc4cccnc34)c(C(=O)NCc3ccccc3)c2)c1 | – | > 100 | > 32.8 | –
34 | – | COc1ccc(C(=O)NCc2ccccc2)c(NS(=O)(=O)c2cccc3cccnc23)c1 | 0 | – | – | –
35 | 8.7 | CCCOc1ccc(NS(=O)(=O)c2cccc3cccnc23)c(C(=O)NC2CC2)c1 | – | > 100 | > 11 | –
36 | 4.4 | O=C(Nc1ccccc1)c1cc(Oc2cccc(Br)c2)ccc1NS(=O)(=O)c1cccc2cccnc12 | – | 64.7 | 14.7 | –
37 | 6.1 | CCCOc1ccc(NS(=O)(=O)c2cccc3cccnc23)c(C(=O)N2CCc3ccccc3C2)c1 | – | > 100 | > 16.4 | –
38 | – | O=C(NCc1ccccc1)c1cc(Oc2cccc(Br)c2)ccc1NS(=O)(=O)c1cccs1 | 0 | – | – | –
39 | 3.9 | CCCOc1ccc(NS(=O)(=O)c2cccc3cccnc23)c(C(=O)NCCCc2ccccc2)c1 | – | > 100 | > 25.6 | –
